Experiments:
Type in all cases: cell-based, human
[1] = system: MELOE-12-21 specific CD4 T cell clone (9C12-DQβ1*0202); assay: Peptide stimulation of CD4 T cell clone 9C12, intracellular cytokine staining; conditions: cognate peptide 10 μM, 5 hours
Procedure: (§1) FIG. 5: Minimal peptides recognized by MELOE-1 specific CD4 T cell clones. MELOE-1 specific CD4 T cell clones were incubated with various concentrations of the indicated peptides during 5 hours in presence of Brefeldin A. TNF-α production was assessed by intracellular labeling with an anti-TNF-α specific antibody. The core peptide sequence is indicated in bold on each figure panel, and black circles illustrate the best fitting peptide.
(§2) Lymphocytes were stimulated for 5 hours in the presence of brefeldin A (10 μg/mL) either with peptide alone (10 μM) in an autopresentation assay or with B-EBV or HLA-class II expressing melanoma cells pulsed 2 hours with the cognate peptide, at a ratio 1:2. In some experiments, blocking mAb against HLA-DP (clone B7.21 from Dr Charron, UMR940, Paris), HLA-DQ (clone SPVL3, Beckman Coulter) or HLA-DR (clone L243, BD Biosciences) were added at a concentration of 12.5 μg/ml. Cells were then stained with APC-conjugated anti-CD4 mAb, fixed with 4% paraformaldehyde, labeled with PE-conjugated anti-cytokine mAb and analyzed by flow cytometry.
(§3) We also documented the T helper profile of each T cell clone, by stimulating the CD4 T cell clones with the cognate peptide, and analyzing cytokine production. All the clones expressed Th1 cytokines (TNFα, IFNγ, IL2 and GM-CSF). On the contrary, these clones differ in their expression of Th2 cytokines. Indeed, the two DQ2 restricted T cell clones (9C12 and 4E2) and the DR1 restricted one (5F9) also strongly express two Th2 cytokines (IL4, and IL13), whereas the DR11-restricted T cell clone only weakly expressed IL4 (Table IV). None of the CD4 T cell expresses IL10 or IL5 at a significant level.
(§4) Three shorter peptides were better recognized by the DQ2-restricted 9C12 T cell clone, the shortest one being MELOE-17-19 (13-mer), recognized with an EC50 of 100 nM. The deletion of the two amino acids in C-term strongly reduces T cell clone recognition. […] Nonetheless all of these clones recognized a series of shortened peptides, thus we cannot formally assess that the shortest ones will be the exact peptides naturally presented on class II molecules.

[2] = system: MELOE-1 specific T cell clones; assay: HLA restriction of MELOE-1 specific T cell clones (anti-HLA blocking antibodies, HLA-matched B-EBV cell lines)
Procedure: FIG. 3: HLA-restricting element of MELOE-1 specific T cell clones and reactivity against HLA-matched melanoma cell lines. The HLA restriction of MELOE-1 specific T cell clones was first assessed using anti-HLA blocking antibodies (upper panel). T cell clones were stimulated for 5 hours in the presence of brefeldin A (10 μg/mL) either with peptide alone (10 μM) in an autopresentation assay and in presence or not of blocking antibodies at a concentration of 12.5 μg/mL. HLA restriction was confirmed with HLA-matched B-EBV cell lines pulsed 2 hrs with the cognate peptide, at a ratio 1:2 (middle panel). Reactivity of each T cell clone against HLA-class II expressing melanoma cells was assessed, in presence or not of exogeneous peptide (lower panel). After 5 hours of stimulation, cells were then stained with APC-conjugated anti-CD4 mAb, fixed with 4% paraformaldehyde, labeled with PE-conjugated anti-TNF-α mAb and analyzed by flow cytometry.
as §2
In order to formally characterize the recognized epitopes, we derived CD4 T cell clones specific for each region of MELOE-1 by limiting dilution, from microcultures of healthy donors or melanoma patients, containing at least 0.5% of specific CD4 T cells. We succeeded to derive CD4 specific T cell clones from HD17, HD22, HD25 and Pt≠3 microcultures, which were reactive against MELOE-12-21 (HD22), MELOE-111-30 (HD17 and Pt≠3) and MELOE-126-46 (HD25). From each cloning experiment, we obtained between one and ten reactive CD4 T cell clones, that turned out to be the same clonotype after CDR3B sequencing (Table IV). A single CD4 T cell clone for each specificity was used for further experiments. The HLA-restriction was determined for each T cell clone, first by using HLA-class II blocking monoclonal antibodies (FIG. 3, upper panel), and further by testing the recognition of HLA-matched B-EBV cell lines loaded with each recognized long peptide (FIG. 3 middle panel). The two T cell clones named 9C12 and 4E2, derived from HD22 and HD25 and specific for MELOE-12-21 and MELOE-126-46 were restricted by the HLA-DQβ1*0202 and the DQβ1*0201 molecules respectively. […]

[3] = system: MELOE-111-30 specific CD4 T cell clone (1A5-DRβ1*1101); assay: Peptide stimulation of CD4 T cell clone 1A5, intracellular cytokine staining; conditions: cognate peptide 10 μM, 5 hours
Procedure: as §1, §2, §3, §4

[4] = system: MELOE-111-30 specific CD4 T cell clone (5F9-DRβ1*0101); assay: Peptide stimulation of CD4 T cell clone 5F9, intracellular cytokine staining; conditions: clone 5F9, cognate peptide 10 μM, 5 hours
Procedure: as §1, §2, §3, §4

## SCVGYPDEATSREQFLPSEG (SCVGYPDEATSREQFLPSEC) [MELOE-12-21]
[1]
  Cytokine profile: GM-CSF: GM-CSF ^high
  Cytokine profile: IFN: IFN ^high
  Cytokine profile: IL2: IL2 ^high
  Cytokine profile: IL4: IL4 ^high
  Cytokine profile: IL5: IL5 ^low
  Cytokine profile: IL10: IL10 ^neg
  Cytokine profile: IL13: IL13 ^high
[1]; autopresentation
  Cytokine profile: TNF: TNF ^high
[2]; T cell clone 9C12 (from HD22)
  HLA-restricting element of the peptide-specific T cell clone: HLA-DQβ1*0202

## TSREQFLPSEGAACPPWHPS [MELOE-111-30]
[3]
  Cytokine profile: GM-CSF: GM-CSF ^high
  Cytokine profile: IFN: IFN ^high
  Cytokine profile: IL2: IL2 ^high
  Cytokine profile: IL4: IL4 ^low
  Cytokine profile: IL5: IL5 ^neg
  Cytokine profile: IL10: IL10 ^neg
  Cytokine profile: IL13: IL13 ^neg
[3]; autopresentation
  Cytokine profile: TNF: TNF ^high
[4]
  Cytokine profile: GM-CSF: GM-CSF ^high
  Cytokine profile: IFN: IFN ^high
  Cytokine profile: IL2: IL2 ^low
  Cytokine profile: IL4: IL4 ^high
  Cytokine profile: IL5: IL5 ^neg
  Cytokine profile: IL10: IL10 ^neg
  Cytokine profile: IL13: IL13 ^high
[4]; autopresentation
  Cytokine profile: TNF: TNF ^high
[2]; T cell clone 1A5
  HLA-restricting element of the peptide-specific T cell clone: HLA-DRβ1*1101
[2]; T cell clone 5F9
  HLA-restricting element of the peptide-specific T cell clone: HLA-DRβ1*0101

Reference: patent US9573975B2, “Melanoma antigen peptide and uses thereof” (INSERM (INSTITUT NATIONAL DE LA SANTE ET DE LA RECHERCHE …, priority 2012, dated 2017)
